According to patent publication US6387907B1, “Use of serotonin agonists to alleviate disordered breathing episodes in a mammal” (The Trustees of the University of Pennsylvania, priority 1997, dated 2002):

Tests used:
Type in all cases: in vivo, English bulldog
English bulldogs [1] = assay: Upper airway dilator muscle (GH, SH) EMG activity during wakefulness after i.v. serotonin antagonist; details: mean±SE
From the text: Following the baseline sleep study to document sleep-disordered breathing, each dog underwent a surgical procedure for the implantation of recording electrodes. For this procedure, dogs were premedicated with 5 to 10 micrograms per kilogram body weight atropine sulfate intramuscularly. In the cases of two bulldogs experiencing severe sleep-disordered breathing, intubation and general anesthesia were thought to pose a significant risk for postoperative respiratory failure. These two dogs were therefore sedated only using 20 to 40 micrograms per kilogram body weight oxymorphone administered intramuscularly. The six remaining dogs were anesthetized initially with sodium thiopental (15 to 30 milligrams per kilogram body weight) administered intravenously. The dogs were intubated and maintained under general anesthesia using 0.5 to 2.5% (v/v) inhalational halothane throughout the procedure.
Recording electrodes were implanted for the study of diaphragm and upper airway dilator muscle activity. Electrodes were fashioned from 0.7 millimeter multi-stranded Teflon-coated stainless steel wire. The insulation was stripped from 5 to 8 millimeters at the proximal tip. The proximal tip of each electrode was implanted transcutaneously into the relevant musculature using methods described by Basmajian et al. (1962, J. Appl. Physiol. 17:839).
(§1) Five diaphragm electromyographic (DIA EMG) electrodes were implanted in the costal musculature of the right hemidiaphragm 7 to 9 centimeters lateral to the xyphoid process. Three other electrodes were embedded into the right sternohyoid (SH) muscle and, three more were embedded into the right geniohyoid (GH) muscle. Both SH and GH muscles are readily palpable in the English bulldog.
Two ground electrodes were embedded transcutaneously contacting both the occipital skull and dorsal neck musculature. Distal tips of all electrodes were soldered onto a 25-pin Winchester-type connector. Electrodes and the connector were secured to each dog with elastic adhesive dressings over the torso and neck.
(§2) All studies were conducted using an unrestrained dog, either housed within a well-ventilated, electronically shielded, clear Plexiglass™ recording chamber or seated atop a table in the recording room. In either case, an investigator remained with the dog throughout the study to observe the dog's head and neck movements and to document the behavioral state of the dog. EMG signals were band-pass filtered at 50 to 2,000 Hertz. DIA EMG signals were passed through an analog EKG blanker (CWE EKG blanker; CWE, Ardmore, Pa.) and then through a third-order Paynter filter (CWE MA) having a 100-millisecond time constant to obtain a moving average of the DIA EMG. Signals of the SH and GH EMG were also passed through Paynter filters with the same time constants (100 ms) to obtain moving averages of these signals. Oxyhemoglobin saturation was measured continuously with a Biox IIA oximeter attached to the dog's pinna. Signals for the GH EMG, GH moving average (MA), SH EMG, SH MA, DIA EMG, DIA MA, and oxyhemoglobin saturations were recorded polygraphically (10 millimeters per second) using a chart recorder with high frequency response, i.e., as much as 10 kHz (Gould ES1000; Gould Instruments, Cleveland, Ohio). Signals were also recorded on analog tape using an eight-channel FM tape recorder (A. R. Vetter, Roseburg, Pa.).
The effects of serotonin antagonists on upper airway dilator muscle activity and breathing during wakefulness were assessed. Serotonin antagonists which were administered were methysergide maleate and ritanserin.
Ritanserin is a relatively selective serotonin antagonist at types 1C and 2 serotonin receptors (Devaud et al., 1992, J. Neurochem. 59:1459-1466). Ritanserin was selected for study on the basis that the IC and 2 subtypes of serotonin receptors appear to be involves in serotonin facilitation of hypoglossal motoneurons in vivo (Kugin et al., supra). […]

English bulldogs [2] = assay: Diaphragm (DIA) EMG activity during wakefulness after i.v. serotonin antagonist; details: for DIA peak amplitude, mean: mean±SE
Experimental: as §1, §2
(§3) After obtaining baseline recordings of all variables for at least 5 minutes during quiet wakefulness and after obtaining recordings during the 5 minutes following administration of a saline control injection, 0.25 to 0.50 milligrams per kilogram body weight of one of the serotonin antagonists was administered to each dog through a peripheral intravenous line. All variables were continuously recorded. Injections were repeated every 6 minutes either until a total dose of 1 milligram per kilogram body weight had been administered or until the oxygen saturations fell below 85%. These limits were deemed to ensure the dogs' safety, based on an initial study using one dog. This dog, EBD-G was hypoxic at baseline and developed profound reductions in UAW muscle activity with desaturations to 75% after a total dose of 1.0 milligram per kilogram body weight of methysergide. The interval between repeated injections was selected to be 6 minutes to allow for 5 minute sampling periods for each dose. The duration of action of serotonin antagonists is known to be greater than 60 minutes (Bredberg et al., supra; Devaud et al., supra).
The effects of serotonin antagonists on diaphragm activity were similarly analyzed. Briefly, the measures of diaphragm activity were the peak amplitudes for all respiratory bursts in each condition. […] Acquisition of these measures has also been previously described (Hendricks et al., 1991, Am. Rev. Respir. Dis. 144:1112-1120). Mean values across all respiratory bursts of a 5 minute sample period were determined for each dog, and these values were used to perform repeated measures of ANOVA comparing baseline values with post-administration values.

English bulldogs [3] = assay: Waking oxyhemoglobin saturation (SaO2) after i.v. serotonin antagonist; details: for mean SaO2: mean±SE
Experimental: as §2, §3
The effects of ritanserin and methysergide on oxyhemoglobin saturations were analyzed in a similar fashion; i.e., repeated measures of ANOVA for baseline and drug dose conditions. Oxyhemoglobin saturation was measured every 10 scans.

English bulldogs [4] = assay: Respiratory timing from DIA moving average signals; details: 0.50 mg/kg; three dogs
From the text: Respiratory timing variables were obtained from the DIA MA signals, using methods previously described to determine inspiratory time (T1), expiratory time (TE), total time of a respiratory burst (Ttot), and the duty cycle ratio (T1/Ttot) (Hendricks et al., 1987, J. Appl. Physiol. 63:1344-1350; Hendricks et al., 1991, Am Rev. Respir. Dis. 144:1112-1120).

English bulldogs [5] = assay: Direct observation of behavior after serotonin antagonists; details: i.v. during quiet wakefulness; several dogs
From the text: The behavior of the dogs was observed directly throughout this study and for several hours following the last injection by one investigator seated adjacent the dog. The investigator documented both behavioral state and movement and helped the dog to maintain wakefulness throughout the study.

## CC[C@@H](CO)NC(=O)[C@@H]1C=C2c3cccc4c3c(cn4C)C[C@H]2N(C)C1 [methysergide]
English bulldogs [1]; 0.50 mg/kg i.v., baseline ritanserin 14.41±3.93, methysergide 5.75±0.18
  SH peak amplitude: 3.83±0.28 arbitrary units
English bulldogs [1]; 1.00 mg/kg i.v. cumulative, four dogs, baseline 5.75±0.18
  SH peak amplitude: 2.77±0.38 arbitrary units
English bulldogs [2]; 0.50 mg/kg i.v.
  DIA peak amplitude as percentage of the baseline value: 67.7%
English bulldogs [2]; 0.50 mg/kg i.v., baseline ritanserin 17.63±2.79, methysergide 7.07±2.37
  DIA peak amplitude, mean: 4.74±0.25 arbitrary units
English bulldogs [2]; 1.0 mg/kg i.v. cumulative
  DIA peak amplitude as percentage of the baseline value: 39.6%
English bulldogs [2]; 1.0 mg/kg i.v. cumulative, three dogs, baseline 7.07±2.37
  DIA peak amplitude, mean: 2.80±1.48 arbitrary units
English bulldogs [3]; 0.50 mg/kg i.v., baseline ritanserin 92.1±0.6, methysergide 90.3±2.7
  mean SaO2: 86.6±2.0%
English bulldogs [3]; 1.0 mg/kg i.v. cumulative, baseline 90.3±2.7
  mean SaO2: 85.6±0.9%
English bulldogs [3]; total dose 1.0 mg/kg i.v., single dog, initial study
  oxygen desaturations in dog EBD-G (hypoxic at baseline): 75%
English bulldogs [4]
  TE reduced by: 33.8%
  TI reduced by: 12.7%
  Ttot reduced by: 23.9%
English bulldogs [5]
  behavior (head and neck movements, alertness): increase in staring behaviors
